Laboratory results taken from ChEMBL document CHEMBL2073978, “Interactions of n-tetraalkylammonium compounds and biguanides with a human renal organic cation transporter (hOCT2)” (Pharm Res, 2002).

How the values were obtained:
[1] = target: T1, Solute carrier family 22 member 2 (Homo sapiens, UniProt O15244); assay: (§1) TP_TRANSPORTER: inhibition of Cimetidine uptake (Cimetidine: 1 uM) in Xenopus laevis oocytes; format: functional, cell-based, Oocyte
T1 sequence (O15244 whole entry): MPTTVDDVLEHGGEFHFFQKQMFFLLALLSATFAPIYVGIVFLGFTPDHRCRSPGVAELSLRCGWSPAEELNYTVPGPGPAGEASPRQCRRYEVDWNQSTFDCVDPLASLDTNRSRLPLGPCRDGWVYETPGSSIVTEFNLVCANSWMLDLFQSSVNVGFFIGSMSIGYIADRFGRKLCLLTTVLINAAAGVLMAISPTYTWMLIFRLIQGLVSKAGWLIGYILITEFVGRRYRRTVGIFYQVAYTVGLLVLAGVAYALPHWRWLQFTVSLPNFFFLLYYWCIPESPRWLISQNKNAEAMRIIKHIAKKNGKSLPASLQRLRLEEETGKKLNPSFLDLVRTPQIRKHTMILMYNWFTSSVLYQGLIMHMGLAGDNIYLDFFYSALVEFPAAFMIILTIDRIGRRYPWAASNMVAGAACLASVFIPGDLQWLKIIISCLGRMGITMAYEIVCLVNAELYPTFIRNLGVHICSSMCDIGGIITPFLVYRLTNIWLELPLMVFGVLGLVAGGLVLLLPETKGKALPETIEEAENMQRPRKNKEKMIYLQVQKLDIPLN

[2] = target: T2, Solute carrier family 22 member 1 (Homo sapiens, UniProt O15245); assay: as §1; format: functional, cell-based, Oocyte
T2 sequence (O15245 whole entry): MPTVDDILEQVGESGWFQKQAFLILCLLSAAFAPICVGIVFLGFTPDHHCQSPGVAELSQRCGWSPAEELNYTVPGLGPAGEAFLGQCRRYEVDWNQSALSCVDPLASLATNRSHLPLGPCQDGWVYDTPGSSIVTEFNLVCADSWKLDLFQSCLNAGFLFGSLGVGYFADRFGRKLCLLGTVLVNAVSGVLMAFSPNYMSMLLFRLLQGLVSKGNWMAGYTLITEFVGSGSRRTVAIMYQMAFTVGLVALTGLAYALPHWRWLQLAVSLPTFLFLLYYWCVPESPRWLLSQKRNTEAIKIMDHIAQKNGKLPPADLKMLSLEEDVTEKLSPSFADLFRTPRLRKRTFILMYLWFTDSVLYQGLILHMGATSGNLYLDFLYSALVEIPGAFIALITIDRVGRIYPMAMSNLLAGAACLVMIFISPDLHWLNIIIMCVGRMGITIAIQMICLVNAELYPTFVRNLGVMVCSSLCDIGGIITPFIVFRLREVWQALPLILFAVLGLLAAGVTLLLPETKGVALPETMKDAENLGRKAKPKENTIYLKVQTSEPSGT

[3] = target: T1, Solute carrier family 22 member 2; format: functional, cell-based, Xenopus laevis, Oocyte

IC50 [1] [µM]	IC50 [2] [µM]	SMILES	IC50 [3] [µM]
1700		CN(C)C(=N)N=C(N)N [METFORMIN]	
65	10	[H]/N=C(/N)N/C(=N/[H])NCCc1ccccc1 [PHENFORMIN]	
		CCCC[N+](CCCC)(CCCC)CCCC [TETRABUTHYLAMMONIUM]	120
		CCC[N+](CCC)(CCC)CCC [TETRAPROPYLAMMONIUM]	128
		CC[N+](CC)(CC)CC [TETRYLAMMONIUM]	156
